Assay results: PubChem BioAssay AID220 (DTP/NCI, 2004)
“And” between values parts separate entries of the source, which are not always exact repeats. Identical values can stand only once. Records with an inconclusive call do not appear.

System: CD8F1 mice, subcutaneous mammary adenocarcinoma, T/C%
Assay: NCI In Vivo Anticancer Drug Screen. Data for tumor model Mammary Adenocarcinoma CD8F1 (subcutaneous) in CD8F1
Details: higher = larger tumour
In short: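 Antitumor activity is assessed in transplantable-tumor mice by comparing the treated group with a vehicle-treated control group. Survival or tumor size serves as the measure, reported as T divided by C.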

[1] = endpoint: median tumor weight change, dose: 125.0 mg/kg/injection, schedule: Q01DX001 (ip), vehicle: saline with Tween-80
[2] = endpoint: median tumor weight change, dose: 250.0 mg/kg/injection, schedule: Q01DX001 (ip), vehicle: saline with Tween-80
[3] = endpoint: median tumor weight change, dose: 500.0 mg/kg/injection, schedule: Q01DX001 (ip), vehicle: saline with Tween-80
[4] = endpoint: median tumor weight change, dose: 1000.0 mg/kg/injection, schedule: Q01DX001 (ip), vehicle: saline with Tween-80
[5] = endpoint: median tumor weight (est.), dose: 12.5 mg/kg/injection, schedule: Q07DX005 (ip), vehicle: Klucel (hydroxypropylcellulose) (HPC)
[6] = endpoint: median tumor weight (est.), dose: 25.0 mg/kg/injection, schedule: Q07DX005 (ip), vehicle: Klucel (hydroxypropylcellulose) (HPC)
[7] = endpoint: median tumor weight (est.), dose: 100.0 mg/kg/injection, schedule: Q07DX005 (ip), vehicle: Klucel (hydroxypropylcellulose) (HPC)

Question: `COC(=O)Nc1nc2ccc(C3(c4ccc(F)cc4)OCCO3)cc2[nH]1` was tested. Which T/C (endpoint: median tumor weight change, dose: 125.0 mg/kg/injection, schedule: Q01DX001 (ip), vehicle: saline) did it give?
Answer: 99 % of control

Question: And the T/C (endpoint: median tumor weight change, dose: 125.0 mg/kg/injection, schedule: Q01DX001 (ip), vehicle: suspension in saline)?
Answer: 152 % of control

Question: And the T/C (endpoint: median tumor weight change, dose: 250.0 mg/kg/injection, schedule: Q01DX001 (ip), vehicle: suspension in saline)?
Answer: 67 % of control

Question: What about the T/C (endpoint: median tumor weight change, dose: 500.0 mg/kg/injection, schedule: Q01DX001 (ip), vehicle: suspension in saline) of the same compound?
Answer: 153 % of control

Question: And the T/C (endpoint: median tumor weight change, dose: 1000.0 mg/kg/injection, schedule: Q01DX001 (ip), vehicle: suspension in saline)?
Answer: 93 % of control

Question: For `CCn1cnc2c(=S)nc[nH]c21`, which T/C [1] is on record?
Answer: 66 % of control

Question: And the T/C [2]?
Answer: 50 % of control

Question: What about the T/C [3] of the same compound?
Answer: 64 % of control

Question: What about the T/C [4] of the same compound?
Answer: 39 % of control

Question: Which T/C (endpoint: median tumor weight change, dose: 62.5 mg/kg/injection, schedule: Q01DX001 (ip), vehicle: distilled water + Tween-80) does the source give for `CCCCCC(O)C1C(=O)OC(C)C(O)/C=C/C=C/C=C/C=C\C=C(\C)C(O)CC(O)CC(O)CC(O)CC(O)CC(O)CC1O` (centres undefined) here?
Answer: 150 % of control

Question: For `S=C(Nc1ccc(Cl)c(Cl)c1)N1c2ccccc2-n2cccc2C1c1cccnc1` (centres undefined), which T/C (endpoint: median tumor weight change, dose: 250.0 mg/kg/injection, schedule: Q01DX001 (ip), vehicle: Klucel (hydroxypropylcellulose) (HPC)) is on record?
Answer: 48 % of control and 67 % of control

Question: What about the T/C (endpoint: median tumor weight change, dose: 500.0 mg/kg/injection, schedule: Q01DX001 (ip), vehicle: Klucel (hydroxypropylcellulose) (HPC)) of the same compound?
Answer: 49 % of control and 57 % of control

Question: What about the T/C (endpoint: median tumor weight change, dose: 1000.0 mg/kg/injection, schedule: Q01DX001 (ip), vehicle: Klucel (hydroxypropylcellulose) (HPC)) of the same compound?
Answer: 50 % of control and 70 % of control

Question: And the T/C (endpoint: median tumor weight change, dose: 2000.0 mg/kg/injection, schedule: Q01DX001 (ip), vehicle: Klucel (hydroxypropylcellulose) (HPC))?
Answer: -11 % of control

Question: How did the T/C [5] turn out when `C=Cc1cnc([N+](=O)[O-])n1C` was run?
Answer: 122 % of control

Question: And the T/C [6]?
Answer: 92 % of control

Question: And the T/C [7]?
Answer: 42 % of control

Question: What about the T/C (endpoint: median tumor weight (est.), dose: 200.0 mg/kg/injection, schedule: Q07DX005 (ip), vehicle: Klucel (hydroxypropylcellulose) (HPC)) of the same compound?
Answer: 30 % of control

Question: `COc1cc(Cc2nccc3cc(OC)c(OC)cc23)c(C(C)=O)c(OC)c1` was tested. Which T/C (endpoint: median tumor weight (est.), dose: 10.0 mg/kg/injection, schedule: Q07DX005 (ip), vehicle: suspension in saline) did it give?
Answer: 57 % of control

Question: What about the T/C (endpoint: median tumor weight (est.), dose: 20.0 mg/kg/injection, schedule: Q07DX005 (ip), vehicle: suspension in saline) of the same compound?
Answer: 45 % of control

Question: What about the T/C (endpoint: median tumor weight (est.), dose: 40.0 mg/kg/injection, schedule: Q07DX005 (ip), vehicle: suspension in saline) of the same compound?
Answer: 46 % of control

Question: And the T/C (endpoint: median tumor weight (est.), dose: 80.0 mg/kg/injection, schedule: Q07DX005 (ip), vehicle: suspension in saline)?
Answer: 61 % of control

Question: And the T/C (endpoint: median tumor weight (est.), dose: 160.0 mg/kg/injection, schedule: Q07DX005 (ip), vehicle: suspension in saline)?
Answer: 49 % of control

Question: What does the source list for `Nc1n[nH]c(N)n1`?
Answer: T/C (endpoint: mean tumor weight, dose: 25.0 mg/kg/injection, schedule: Q01DX009 (ip), vehicle: saline): 153 % of control; T/C (endpoint: mean tumor weight, dose: 100.0 mg/kg/injection, schedule: Q01DX009 (ip), vehicle: saline): 207 % of control; T/C (endpoint: median tumor weight (est.), dose: 100.0 mg/kg/injection, schedule: Q07DX005 (ip), vehicle: saline): 50 % of control and 67 % of control; T/C (endpoint: median tumor weight (est.), dose: 200.0 mg/kg/injection, schedule: Q07DX005 (ip), vehicle: saline): 58 % of control and 68 % of control; T/C (endpoint: median tumor weight (est.), dose: 1600.0 mg/kg/injection, schedule: Q07DX005 (ip), vehicle: saline): 27 % of control and 51 % of control; T/C (endpoint: median tumor weight change, dose: 250.0 mg/kg/injection, schedule: Q01DX001 (ip), vehicle: saline): 75 % of control; T/C (endpoint: median tumor weight change, dose: 500.0 mg/kg/injection, schedule: Q01DX001 (ip), vehicle: saline): 121 % of control; T/C (endpoint: median tumor weight change, dose: 1000.0 mg/kg/injection, schedule: Q01DX001 (ip), vehicle: saline): 120 % of control; T/C (endpoint: median tumor weight change, dose: 2000.0 mg/kg/injection, schedule: Q01DX001 (ip), vehicle: saline): 174 % of control

Question: Which results are given for `COc1cccc2c1C(=O)c1c(O)c3c(c(O)c1C2=O)CC(O)(C(=O)CO)CC3OC1CC(N)C(O)C(C)O1` (centres undefined)?
Answer: T/C (endpoint: median tumor weight (est.), dose: 12.0 mg/kg/injection, schedule: Q07DX006 (ip), vehicle: saline): 37 % of control; T/C (endpoint: median tumor weight (est.), dose: 20.0 mg/kg/injection, schedule: Q07DX005 (ip), vehicle: water): 33 % of control; T/C (endpoint: median tumor weight (est.), dose: 24.0 mg/kg/injection, schedule: Q07DX006 (ip), vehicle: saline): 18 % of control; T/C (endpoint: median tumor weight (est.), dose: 30.0 mg/kg/injection, schedule: Q07DX005 (ip), vehicle: saline): 33 % of control; T/C (endpoint: median tumor weight (est.), dose: 30.0 mg/kg/injection, schedule: Q07DX005 (ip), vehicle: water): 11 % of control and 22 % of control; T/C (endpoint: median tumor weight (est.), dose: 45.0 mg/kg/injection, schedule: Q07DX005 (ip), vehicle: water): 1 % of control and 11 % of control; T/C (endpoint: median tumor weight (est.), dose: 48.0 mg/kg/injection, schedule: Q07DX006 (ip), vehicle: saline): 1 % of control; T/C (endpoint: median tumor weight (est.), dose: 60.0 mg/kg/injection, schedule: Q07DX005 (ip), vehicle: saline): 14 % of control and 18 % of control

Question: For `CCCCC[C@H](O)/C=C/[C@@H]1[C@@H](C/C=C\CCCC(=O)O)[C@@H](O)C[C@H]1O`, which T/C (endpoint: mean tumor weight, dose: 160.0 mg/kg/injection, schedule: Q01DX001 (iv), vehicle: saline) is on record?
Answer: 93 % of control

Question: What about the T/C (endpoint: mean tumor weight, dose: 320.0 mg/kg/injection, schedule: Q01DX001 (iv), vehicle: saline) of the same compound?
Answer: 58 % of control

Question: What does the source list for `CC1=C2CC(C)(C)/C=C\C(=O)/C(C)=C\C3=C[C@H](C)C[C@]3(O2)C1=O`?
Answer: T/C (endpoint: median tumor weight (est.), dose: 1.5 mg/kg/injection, schedule: Q07DX005 (ip), vehicle: Klucel (hydroxypropylcellulose) (HPC)): 78 % of control; T/C (endpoint: median tumor weight (est.), dose: 1.5 mg/kg/injection, schedule: Q07DX005 (ip), vehicle: saline): 94 % of control; T/C (endpoint: median tumor weight (est.), dose: 3.0 mg/kg/injection, schedule: Q07DX005 (ip), vehicle: Klucel (hydroxypropylcellulose) (HPC)): 212 % of control; T/C (endpoint: median tumor weight (est.), dose: 6.0 mg/kg/injection, schedule: Q07DX005 (ip), vehicle: Klucel (hydroxypropylcellulose) (HPC)): 174 % of control; T/C (endpoint: median tumor weight (est.), dose: 6.0 mg/kg/injection, schedule: Q07DX005 (ip), vehicle: saline): 112 % of control; T/C (endpoint: median tumor weight (est.), dose: 12.0 mg/kg/injection, schedule: Q07DX005 (ip), vehicle: Klucel (hydroxypropylcellulose) (HPC)): 80 % of control; T/C (endpoint: median tumor weight (est.), dose: 12.0 mg/kg/injection, schedule: Q07DX005 (ip), vehicle: saline): 88 % of control; T/C (endpoint: median tumor weight (est.), dose: 24.0 mg/kg/injection, schedule: Q07DX005 (ip), vehicle: Klucel (hydroxypropylcellulose) (HPC)): 466 % of control; T/C (endpoint: median tumor weight (est.), dose: 48.0 mg/kg/injection, schedule: Q07DX005 (ip), vehicle: saline): 44 % of control

Question: `CS(=O)(=O)OCCN(CCOS(C)(=O)=O)c1ccc(C=Nc2ccc(-c3csc(COc4ccccc4)n3)cc2)cc1` was tested. Which T/C (endpoint: median tumor weight (est.), dose: 6.25 mg/kg/injection, schedule: Q07DX005 (ip), vehicle: Klucel (hydroxypropylcellulose) (HPC)) did it give?
Answer: 88 % of control

Question: And the T/C [5]?
Answer: 97 % of control and 103 % of control

Question: And the T/C [6]?
Answer: 75 % of control and 79 % of control

Question: What about the T/C (endpoint: median tumor weight (est.), dose: 50.0 mg/kg/injection, schedule: Q07DX005 (ip), vehicle: Klucel (hydroxypropylcellulose) (HPC)) of the same compound?
Answer: 83 % of control

Question: What about the T/C [7] of the same compound?
Answer: 27 % of control and 44 % of control

Question: Which T/C (endpoint: median tumor weight change, dose: 62.5 mg/kg/injection, schedule: Q01DX001 (ip), vehicle: saline with Tween-80) does the source give for `Nc1ccc(S(N)(=O)=O)cc1` here?
Answer: 112 % of control

Question: What about the T/C [1] of the same compound?
Answer: 110 % of control

Question: And the T/C [2]?
Answer: 88 % of control

Question: What about the T/C [3] of the same compound?
Answer: 64 % of control

Question: And the T/C [4]?
Answer: 124 % of control

Question: `CCC[CH2][Hg][Cl]` was tested. Which T/C (endpoint: median tumor weight (est.), dose: 2.5 mg/kg/injection, schedule: Q07DX005 (ip), vehicle: Klucel (hydroxypropylcellulose) (HPC)) did it give?
Answer: 197 % of control

Question: And the T/C (endpoint: median tumor weight (est.), dose: 5.0 mg/kg/injection, schedule: Q07DX005 (ip), vehicle: Klucel (hydroxypropylcellulose) (HPC))?
Answer: 112 % of control

Question: And the T/C (endpoint: median tumor weight (est.), dose: 20.0 mg/kg/injection, schedule: Q07DX005 (ip), vehicle: Klucel (hydroxypropylcellulose) (HPC))?
Answer: 110 % of control
